Reference: ChEMBL document CHEMBL4340516, “Synthesis and antitumor activity of novel steroidal imidazolium salt derivatives” (Eur J Med Chem, 2019)

What was measured:
SMMC-7721 [1] = assay: Cell cycle arrest in human SMMC7721 cells assessed as accumulation of cells at G0/G1 phase after 24 hrs by propidium iodide staining-based flow cytometric analysis; type: functional
SMMC-7721 [2] = assay: Cell cycle arrest in human SMMC7721 cells assessed as accumulation of cells at S phase at 1 uM after 24 hrs by propidium iodide staining-based flow cytometric analysis (reference value: 24.5 +/- 0.05%); type: functional
SMMC-7721 [3] = assay: Induction of apoptosis in human SMMC7721 cells assessed as late apoptotic cells at 2 uM after 48 hrs by annexin V-FITC/propidium iodide staining based flow cytometry (reference value: 3.05%); type: functional
HL-60 = assay: Antiproliferative activity against human HL60 cells assessed as reduction in cell viability incubated for 48 hrs by MTS assay; type: functional, cell-based; settings: HL-60, 48 h
SW480 = assay: Antiproliferative activity against human SW480 cells assessed as reduction in cell viability incubated for 48 hrs by MTS assay; type: functional, cell-based; settings: SW480, 48 h
SMMC-7721 [4] = assay: Cell cycle arrest in human SMMC7721 cells assessed as accumulation of cells at G2/M phase at 4 uM after 24 hrs by propidium iodide staining-based flow cytometric analysis (reference value: 8.72 +/- 0.42%); type: functional
SMMC-7721 [5] = assay: Induction of apoptosis in human SMMC7721 cells assessed as necrotic cells at 2 uM after 48 hrs by annexin V-FITC/propidium iodide staining based flow cytometry (reference value: 0.6%); type: functional
SMMC-7721 [6] = assay: Cell cycle arrest in human SMMC7721 cells assessed as accumulation of cells at G0/G1 phase at 2 uM after 24 hrs by propidium iodide staining-based flow cytometric analysis (reference value: 62.58 +/- 0.35%); type: functional
SMMC-7721 [7] = assay: Cell cycle arrest in human SMMC7721 cells assessed as accumulation of cells at G0/G1 phase at 0.5 uM after 24 hrs by propidium iodide staining-based flow cytometric analysis (reference value: 62.58 +/- 0.35%); type: functional
SMMC-7721 [8] = assay: Induction of apoptosis in human SMMC7721 cells assessed as early apoptotic cells at 1 uM after 48 hrs by annexin V-FITC/propidium iodide staining based flow cytometry (reference value: 1.68%); type: functional
SMMC-7721 [9] = assay: Cell cycle arrest in human SMMC7721 cells assessed as accumulation of cells at G0/G1 phase at 4 uM after 24 hrs by propidium iodide staining-based flow cytometric analysis (reference value: 62.58 +/- 0.35%); type: functional
SMMC-7721 [10] = assay: Cell cycle arrest in human SMMC7721 cells assessed as accumulation of cells at sub-G1 phase at 0.5 uM after 24 hrs by propidium iodide staining-based flow cytometric analysis (reference value: 2.33 +/- 0.17%); type: functional
SMMC-7721 [11] = assay: Cell cycle arrest in human SMMC7721 cells assessed as accumulation of cells at G2/M phase at 0.5 uM after 24 hrs by propidium iodide staining-based flow cytometric analysis (reference value: 8.72 +/- 0.42%); type: functional
SMMC-7721 [12] = assay: Induction of apoptosis in human SMMC7721 cells assessed as necrotic cells at 1 uM after 48 hrs by annexin V-FITC/propidium iodide staining based flow cytometry (reference value: 0.6%); type: functional
SMMC-7721 [13] = assay: Induction of apoptosis in human SMMC7721 cells assessed as viable cells at 2 uM after 48 hrs by annexin V-FITC/propidium iodide staining based flow cytometry (reference value: 94.7%); type: functional; settings: SMMC-7721, 48 h, read-out: Activity
SMMC-7721 [14] = assay: Induction of apoptosis in human SMMC7721 cells assessed as early apoptotic cells at 2 uM after 48 hrs by annexin V-FITC/propidium iodide staining based flow cytometry (reference value: 1.68%); type: functional
SMMC-7721 [15] = assay: Cell cycle arrest in human SMMC7721 cells assessed as accumulation of cells at sub-G1 phase at 1 uM after 24 hrs by propidium iodide staining-based flow cytometric analysis (reference value: 2.33 +/- 0.17%); type: functional
SMMC-7721 [16] = assay: Cell cycle arrest in human SMMC7721 cells assessed as accumulation of cells at S phase at 4 uM after 24 hrs by propidium iodide staining-based flow cytometric analysis (reference value: 24.5 +/- 0.05%); type: functional
SMMC-7721 [17] = assay: Cell cycle arrest in human SMMC7721 cells assessed as accumulation of cells at G2/M phase at 1 uM after 24 hrs by propidium iodide staining-based flow cytometric analysis (reference value: 8.72 +/- 0.42%); type: functional
MCF7 = assay: Antiproliferative activity against human MCF7 cells assessed as reduction in cell viability incubated for 48 hrs by MTS assay; type: functional, cell-based; settings: MCF7, 48 h
SMMC-7721 [18] = assay: Induction of apoptosis in human SMMC7721 cells assessed as viable cells at 1 uM after 48 hrs by annexin V-FITC/propidium iodide staining based flow cytometry (reference value: 94.7%); type: functional; settings: SMMC-7721, 48 h, read-out: Activity
SMMC-7721 [19] = assay: Cell cycle arrest in human SMMC7721 cells assessed as accumulation of cells at S phase at 0.5 uM after 24 hrs by propidium iodide staining-based flow cytometric analysis (reference value: 24.5 +/- 0.05%); type: functional
SMMC-7721 [20] = assay: Induction of apoptosis in human SMMC7721 cells assessed as late apoptotic cells at 1 uM after 48 hrs by annexin V-FITC/propidium iodide staining based flow cytometry (reference value: 3.05%); type: functional
SMMC-7721 [21] = assay: Cell cycle arrest in human SMMC7721 cells assessed as accumulation of cells at G0/G1 phase at 1 uM after 24 hrs by propidium iodide staining-based flow cytometric analysis (reference value: 62.58 +/- 0.35%); type: functional
SMMC-7721 [22] = assay: Antiproliferative activity against human SMMC7721 cells assessed as reduction in cell viability incubated for 48 hrs by MTS assay; type: functional, cell-based; settings: SMMC-7721, 48 h
A549 = assay: Antiproliferative activity against human A549 cells assessed as reduction in cell viability incubated for 48 hrs by MTS assay; type: functional, cell-based; settings: A549, 48 h

Cc1cc2c(cc1C)[n+](Cc1ccccc1Br)cn2[C@@H]1CC[C@@]2(C)C(=CC[C@H]3[C@@H]4C[C@@H]5O[C@]6(CC[C@@H](C)CO6)[C@@H](C)[C@@H]5[C@@]4(C)CC[C@@H]32)C1.[Br-]
Activity (SMMC-7721 [1]): Dose-dependent effect
Activity (SMMC-7721 [2]): 14.22%
Activity (SMMC-7721 [3]): 64.9%
IC50 (HL-60): 490 nM
IC50 (SW480): 790 nM
Activity (SMMC-7721 [4]): 4.67%
Activity (SMMC-7721 [5]): 6.62%
Activity (SMMC-7721 [6]): 73.61%
Activity (SMMC-7721 [7]): 73.61%
Activity (SMMC-7721 [8]): 0.373%
Activity (SMMC-7721 [9]): 78.1%
Activity (SMMC-7721 [10]): 2.4%
Activity (SMMC-7721 [11]): 3.49%
Activity (SMMC-7721 [12]): 1.27%
viability at 2 µM (SMMC-7721 [13]): 27.8%
Activity (SMMC-7721 [14]): 0.69%
Activity (SMMC-7721 [15]): 2.43%
Activity (SMMC-7721 [16]): 14.22%
Activity (SMMC-7721 [17]): 4.67%
IC50 (MCF7): 730 nM
viability at 1 µM (SMMC-7721 [18]): 79.6%
Activity (SMMC-7721 [19]): 19.23%
Activity (SMMC-7721 [20]): 18.7%
Activity (SMMC-7721 [21]): 78.1%
IC50 (SMMC-7721 [22]): 440 nM
IC50 (A549): 670 nM
